These results are taken from patent US20240287173A1, “THERAPEUTIC AGENT FOR MUSCULAR ATROPHY” (NATIONAL UNIVERSITY CORPORATION KUMAMOTO UNIVERSITY, priority 2021, published 2024).

The test system of one test is wild-type mouse DB model. As to the kind of experiment: STZ-induced diabetes (DB) muscle atrophy model. The class given is in vivo. The following applies: DAPT 10 mg/kg i.p. every other day during DB induced period. The method, then:
(§1) Wild-type mice were used to examine the effects of inhibition of the Notch signaling pathway on muscle in vitro. Ultra-LEAF™ anti-mouse Dll4 antibody (Dll4 blocking antibody) or Ultra-LEAF™ American hamster IgG control antibody (control antibody) was administered intraperitoneally (10 mg/kg body weight) every 4 days in each experiment. Recombinant Dll4-Fc chimeric protein (rDll4) was dissolved in phosphate-buffered saline (PBS) and administered (0.5 mg/kg body weight) every two days. The γ-secretase inhibitor, DAPT, dissolved in 10% ethanol and corn oil, was administered every 2 days (10 mg/kg body weight). […]
Mice were given a single intraperitoneal injection of STZ (150 mg/kg body weight) at a level that is toxic to insulin-producing pancreatic β-cells, or an equal volume of solvent (0.1 M citrate buffer, pH 4.5) as a control was injected. Mice were monitored for hyperglycemia on day 3 using Accu-chek (Roche), and only mice that achieved casual blood glucose levels>300 mg/dl were used in the experiment. […]
(§2) Total RNA was extracted from muscle tissue, isolated myofibers, cultured cells, and freshly sorted cells using ISOGEN II and RNeasy Kit (Qiagen) according to the manufacturer's instructions. […] Quantitative PCR (qPCR) was performed using THUNDERBIRD SYBR qPCR mix (TOYOBO) and real-time PCR detection system (CFX96; Bio Rad). […]

Test [1] concerns wild-type mouse mechanical load-induced muscle hypertrophy model. As to the kind of experiment: Mechanical overload (tenotomy)-induced muscle hypertrophy model. The class given is in vivo. The following applies: DAPT 10 mg/kg i.p. after tenotomy, day 14, vs control mice. The method, then:
Wild-type mice were used to examine the effects of inhibition of the Notch signaling pathway on muscle in vitro. Ultra-LEAF™ anti-mouse Dll4 antibody (Dll4 blocking antibody) or Ultra-LEAF™ American hamster IgG control antibody (control antibody) was administered intraperitoneally (10 mg/kg body weight) every 4 days in each experiment. Recombinant Dll4-Fc chimeric protein (rDll4) was dissolved in phosphate-buffered saline (PBS) and administered (0.5 mg/kg body weight) every two days. The γ-secretase inhibitor, DAPT, dissolved in 10% ethanol and corn oil, was administered every 2 days (10 mg/kg body weight). Control mice were injected intraperitoneally with an equivalent volume of vehicle in rDll4 or DAPT experiments.
Tenotomy surgery was performed on both legs of mice to induce muscle hypertrophy. In anesthetized mice, an incision was made along the midline of the calf after hair removal. […]
(§3) Isolated PLA or TA muscles were immediately frozen in liquid nitrogen-cooled 2-methylbutane and stored at −80° C. until analysis. […] Immunostained specimens were visualized using Alexa Fluor conjugated secondary antibodies and observed using fluorescence microscopy. Image-J (NIH) was used to quantify myofiber CSA from at least 500 myofibers and count the number of satellite cells per myofiber from at least 15 myofibers.

In another test the test system is wild-type mouse HU model. As to the kind of experiment: Hindlimb unloading (HU) muscle atrophy model. The class given is in vivo. The settings on record: DAPT 10 mg/kg i.p. every other day during HU period. The procedure:
as §1, §2, §3

Test [2] relates to EDL myofibers derived from N2f/f mice. As to the kind of experiment: Dll4-induced myofiber atrophy on recombinant Dll4-coated plates with γ-secretase inhibitor. The following applies: DAPT 10 μM, 48 hours, recombinant Dll4-coated plate. In kind it is cell-based, mouse. The method, then: Culture dishes were coated with Notch ligand recombinant protein as reported by Sakai et al. (Sakai et al., PLOS One 12, e0177516 (2017)). Culture dishes were first coated with 10 μg/ml anti-Fc antibody for 1 hour at room temperature, followed by Matrigel (Corning) for 20 minutes. Fc antibody coated dishes were incubated with 5 ng/μl of Fc fusion protein of each Notch ligand (Dll1, Dll4, Jag1 and Jag2) for 1 hour at room temperature. Individual myofibers isolated from EDL muscle were placed in serum-free DMEM and cultured in a CO2 incubator for 48 hours. DAPT (10 µM) was used to inhibit γ-secretase activity in myofibers.
Cultured myofibers were captured using fluorescence microscopy and diameters were quantified from at least 15 individual myofibers using ImageJ (NIH).
Notch, which is a transmembrane receptor, has its transmembrane domain cleaved by γ-secretase, translocates its intracellular domain to the nucleus, and functions as a transcription factor. Therefore, DAPT, a γ-secretase inhibitor, was used to test the influence of γ-secretase activity on Dll4-induced myofiber atrophy. EDL myofibers derived from N2^f/f mice were cultured for 48 hours on a plate coated previously with recombinant Dll4 protein using a medium containing a γ-secretase inhibitor DAPT (10 μM) or PBS.

`C[C@H](NC(=O)Cc1cc(F)cc(F)c1)C(=O)N[C@H](C(=O)OC(C)(C)C)c1ccccc1` [DAPT]: the “muscle atrophy (muscle mass)” value in the test with wild-type mouse DB model was “significant suppression of muscle atrophy”. In addition, in test [1], the “muscle hypertrophy (overload-induced PLA muscle weight gain)” value was “muscle hypertrophy was exhibited more readily”. In the test on wild-type mouse HU model, the “muscle atrophy (muscle mass of SOL, PLA, GAS)” value is “significant suppression of muscle atrophy”. Also, the “myofiber atrophy on Dll4 stimulation (myofiber diameter)” value in test [2] is “resistant to Dll4 stimulation”.
